Source: patent US20210353639A1, “MAST1 AND USES FOR DIAGNOSING AND TREATING CANCER” (EMORY UNIVERSITY, priority 2018, published 2021)
“Also recorded” adds a separate entry of the source. Values belong to the compound of their own block, whether it stands above or below them.

Key:
MAST1 = target: T1, MAST1 (Homo sapiens, UniProt Q9Y2H9); experiment: MAST1 in vitro kinase assay (purified GST-MAST1, ADP-Glo); assay type: biochemical; conditions: 10 μM drugs incubated with purified GST-MAST1
T1 construct: GST; made in house; host or cells: 293T
Method: GST-MAST1 variants were enriched from 293T and kinase activity was assessed by ADP-Glo Kinase assay using myelin basic protein (MBP) as a substrate.
10 μM drugs were incubated with purified GST-MAST1 and applied to the in vitro kinase assay.
FIG. 7G show data on the effect of lestaurtinib on MAST1 activity at a range of ATP concentrations.

cRaf-MEK1 = target: T2, cRaf-MEK1 (Homo sapiens, UniProt P04049+Q02750); experiment: cRaf-MEK1 dissociation in cancer cells (MEK1 immunoprecipitation); assay type: cell-based
T2 construct: endogenous in cells; host or cells: KB-3-1 and other cancer cell lines
Method: KB-3-1 cells were treated with different compounds as indicated, followed by MEK1 immunoprecipitation and immunoblotting.

MEK1-cRaf complex = target: T3, MEK1-cRaf complex (Homo sapiens, UniProt P04049+Q02750); experiment: In vitro MEK1-cRaf dissociation, purified complex from KB-3-1 cells; assay type: biochemical
T3 construct: endogenous in cells; host or cells: KB-3-1
Excerpt: Samples were collected at different time points and subjected to immunoblotting. Density analysis of relative amount of cRaf bound to MEK1 from three biological replicates are shown.

TKO-002 = experiment: Combination cell viability, SCLC patient-derived tumor TKO-002; assay type: cell-based, human; conditions: combination of lestaurtinib and cisplatin, platinum-refractory SCLC TKO-002
Excerpt: CI value for synergistic effect is shown.

[1] = Tolerability of lestaurtinib and cisplatin dosage (body weight, histopathology, hematopoietic properties); assay type: in vivo, mice; conditions: 20 mg/kg lestaurtinib and 5 mg/kg cisplatin
KB-3-1 cells = experiment: Combination cell viability, Combination Index by CompuSyn, KB-3-1; assay type: cell-based, human; conditions: lestaurtinib in combination with cisplatin
Excerpt: (§1) Combination Index (CI) value for cell viability was obtained by CompuSyn.

[2] = Cisplatin sensitivity / cell viability with MAST1 inhibitors in KB-3-1 cells; assay type: cell-based; conditions: human, read-out: attenuation of cell viability when treated alone
212LN cells = experiment: Combination cell viability, Combination Index by CompuSyn, 212LN; assay type: cell-based, human; conditions: lestaurtinib in combination with cisplatin
Excerpt: as §1

Lung PDX (Pt-9 tumor) = experiment: Tumor growth in lung PDX mice (Pt-9 tumor), lestaurtinib or trametinib with cisplatin; assay type: in vivo; conditions: in combination with cisplatin (5 mg/kg i.p. twice a week); lestaurtinib 20 mg/kg i.p. 5 times a week, trametinib 1 mg/kg oral daily

T1 sequence (Q9Y2H9 whole entry): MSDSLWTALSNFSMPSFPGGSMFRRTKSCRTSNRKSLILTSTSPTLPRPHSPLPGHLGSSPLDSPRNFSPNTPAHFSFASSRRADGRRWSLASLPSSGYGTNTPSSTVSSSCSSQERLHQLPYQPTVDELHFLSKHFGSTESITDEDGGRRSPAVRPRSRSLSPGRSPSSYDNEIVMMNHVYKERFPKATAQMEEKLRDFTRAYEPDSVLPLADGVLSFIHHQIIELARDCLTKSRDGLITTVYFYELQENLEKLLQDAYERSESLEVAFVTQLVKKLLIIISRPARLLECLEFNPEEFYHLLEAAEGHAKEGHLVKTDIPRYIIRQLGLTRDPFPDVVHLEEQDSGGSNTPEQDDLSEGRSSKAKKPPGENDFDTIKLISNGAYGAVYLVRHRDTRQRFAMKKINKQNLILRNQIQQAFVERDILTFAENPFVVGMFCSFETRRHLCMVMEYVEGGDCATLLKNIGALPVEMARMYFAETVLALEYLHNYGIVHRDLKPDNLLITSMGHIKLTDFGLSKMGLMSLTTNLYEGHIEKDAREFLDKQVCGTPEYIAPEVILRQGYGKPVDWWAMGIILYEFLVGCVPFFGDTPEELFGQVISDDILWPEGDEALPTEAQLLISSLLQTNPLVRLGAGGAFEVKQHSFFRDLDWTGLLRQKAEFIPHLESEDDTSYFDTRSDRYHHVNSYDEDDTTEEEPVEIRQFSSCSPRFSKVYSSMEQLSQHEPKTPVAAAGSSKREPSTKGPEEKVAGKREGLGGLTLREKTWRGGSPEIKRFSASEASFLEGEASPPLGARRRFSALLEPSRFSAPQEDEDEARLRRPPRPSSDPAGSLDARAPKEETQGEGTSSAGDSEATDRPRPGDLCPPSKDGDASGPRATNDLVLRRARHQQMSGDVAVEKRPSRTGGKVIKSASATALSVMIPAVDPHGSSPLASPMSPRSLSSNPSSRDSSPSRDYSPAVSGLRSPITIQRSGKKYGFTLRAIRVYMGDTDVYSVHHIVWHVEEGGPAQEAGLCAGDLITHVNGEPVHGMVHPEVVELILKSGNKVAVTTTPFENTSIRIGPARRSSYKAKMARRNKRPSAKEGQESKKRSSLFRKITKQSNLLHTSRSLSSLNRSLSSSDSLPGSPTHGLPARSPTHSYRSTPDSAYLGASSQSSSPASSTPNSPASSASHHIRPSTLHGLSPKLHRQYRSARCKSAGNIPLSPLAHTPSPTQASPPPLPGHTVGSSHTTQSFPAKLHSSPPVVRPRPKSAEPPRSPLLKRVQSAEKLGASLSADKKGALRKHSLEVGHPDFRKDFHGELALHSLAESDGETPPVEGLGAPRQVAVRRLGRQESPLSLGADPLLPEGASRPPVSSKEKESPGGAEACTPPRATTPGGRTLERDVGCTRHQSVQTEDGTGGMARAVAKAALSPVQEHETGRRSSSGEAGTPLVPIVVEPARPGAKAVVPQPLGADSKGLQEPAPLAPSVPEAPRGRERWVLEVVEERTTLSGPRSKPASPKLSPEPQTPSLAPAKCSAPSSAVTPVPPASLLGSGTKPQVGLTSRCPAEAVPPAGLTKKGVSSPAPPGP
T3 sequence (Q02750 whole entry): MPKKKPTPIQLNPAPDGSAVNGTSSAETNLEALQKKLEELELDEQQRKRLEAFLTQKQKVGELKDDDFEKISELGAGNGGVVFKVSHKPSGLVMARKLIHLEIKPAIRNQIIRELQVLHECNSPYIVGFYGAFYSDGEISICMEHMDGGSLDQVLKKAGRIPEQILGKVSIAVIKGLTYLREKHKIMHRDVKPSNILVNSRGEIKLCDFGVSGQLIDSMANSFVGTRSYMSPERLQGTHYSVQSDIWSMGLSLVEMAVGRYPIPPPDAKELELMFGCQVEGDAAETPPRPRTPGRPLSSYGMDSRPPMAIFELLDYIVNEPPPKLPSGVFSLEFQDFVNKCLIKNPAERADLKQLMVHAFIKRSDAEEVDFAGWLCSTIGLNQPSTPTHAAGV
T3 sequence (P04049 whole entry): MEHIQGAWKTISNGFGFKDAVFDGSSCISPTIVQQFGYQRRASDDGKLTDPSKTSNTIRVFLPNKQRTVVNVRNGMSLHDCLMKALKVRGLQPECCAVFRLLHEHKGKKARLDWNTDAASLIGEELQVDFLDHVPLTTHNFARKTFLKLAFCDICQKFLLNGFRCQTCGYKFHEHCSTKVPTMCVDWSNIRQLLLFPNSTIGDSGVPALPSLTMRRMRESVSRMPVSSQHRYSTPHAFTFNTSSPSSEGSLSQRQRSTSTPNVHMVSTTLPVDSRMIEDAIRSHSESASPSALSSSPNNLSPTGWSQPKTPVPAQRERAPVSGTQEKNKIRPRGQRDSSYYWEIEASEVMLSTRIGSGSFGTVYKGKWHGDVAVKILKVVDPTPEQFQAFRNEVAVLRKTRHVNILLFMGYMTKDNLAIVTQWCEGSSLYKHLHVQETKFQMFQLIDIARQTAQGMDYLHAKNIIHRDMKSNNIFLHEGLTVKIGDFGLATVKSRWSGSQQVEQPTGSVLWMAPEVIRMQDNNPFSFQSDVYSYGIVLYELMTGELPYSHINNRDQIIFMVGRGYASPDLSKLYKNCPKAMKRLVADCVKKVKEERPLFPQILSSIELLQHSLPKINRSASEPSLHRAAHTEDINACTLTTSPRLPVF
T2 sequence (Q02750 whole entry): as the sequence (Q02750 whole entry) above
T2 sequence (P04049 whole entry): as the sequence (P04049 whole entry) above

MAST1 activity in in vitro MAST1 kinase assay (MAST1): inhibited MAST1 activity in vitro
SMILES: Cc1[nH]c(C=C2C(=O)Nc3ccc(F)cc32)c(C)c1C(=O)NCC(O)CN1CCOCC1 (stereo not drawn) [SU14813, 5-((5-fluoro-2-oxo-1,2-dihydro-3H-indol-3-ylidene)methyl)-N-(2-hydroxy-3-morpholin-4-ylpropyl)-2,4-dimethyl-1H-pyrrole-3-carboxamide]

SMILES: N#CC(=C(/N)Sc1ccccc1N)/C(C#N)=C(\N)Sc1ccccc1N [U0126]
sensitization of cancer cells to cisplatin by MEK1 inhibitor (cancer cells): sensitized cancer cells to cisplatin

MAST1 activity in in vitro MAST1 kinase assay (MAST1): inhibited MAST1 activity in vitro
SMILES: COc1cc(Nc2c(C#N)cnc3cc(OCCCN4CCN(C)CC4)c(OC)cc23)c(Cl)cc1Cl [bosutinib, 4-[(2,4-Dichloro-5-methoxyphenyl)amino]-6-methoxy-7-[3-(4-methyl-1-piperazinyl)propoxy]-3-quinolinecarbonitrile]

SMILES: N.N.[Cl][Pt][Cl] [cisplatin]
dissociation of cRaf from MEK1 in diverse types of cancer cells (cRaf-MEK1; 5 μg/ml cisplatin for 24 hours): dissociates cRaf
time to dissociation of cRaf from MEK1 (MEK1-cRaf complex; 5 μg/ml cisplatin, time course): within one hour
dissociation of cRaf from MEK1 in vitro (MEK1-cRaf complex; purified MEK1-cRaf complex, cisplatin 0-5 μg/ml for 2 hours): dissociates cRaf from MEK1 in a dose-dependent manner

MAST1 activity in in vitro MAST1 kinase assay (MAST1): inhibited MAST1 activity in vitro
SMILES: CN1CCN(c2ccc3[nH]c(-c4c(N)c5c(F)cccc5[nH]c4=O)nc3c2)CC1 [dovitinib, 4-amino-5-fluoro-3-(5-(4-methylpiperazin-1-yl)-1H-benzimidazol-2-yl)quinolin-2(1H)-one]

SMILES: C[C@]12O[C@H](C[C@]1(O)CO)n1c3ccccc3c3c4c(c5c6ccccc6n2c5c31)CNC4=O [lestaurtinib, 7-hydroxy-7-(hydroxymethyl)-8-methyl-5,6,7,8,13,14-hexahydro-15H-16-oxa-4b,8a,14-triaza-5,8-methanodibenzo[b,h]cycloocta[jkl]cyclopenta[e]-as-indacen-15-one]
CI value for cell viability (TKO-002): 0.57
changes in body weight, histopathology, or hematopoietic properties [1]: did not induce significant changes
combination index (CI) for cell viability (KB-3-1 cells): 0.256
cytotoxicity at 48 h, 100 nM [2]: < 20%
combination index (CI) for cell viability (212LN cells): 0.257

SMILES: CC(=O)O[C@H]1C(=O)[C@@]2(C)[C@H]([C@H](OC(=O)c3ccccc3)[C@]3(O)C[C@H](OC(=O)[C@H](O)[C@@H](NC(=O)c4ccccc4)c4ccccc4)C(C)=C1C3(C)C)[C@]1(OC(C)=O)CO[C@@H]1C[C@@H]2O [paclitaxel]
dissociation of cRaf-MEK1 induced by DNA damaging agents and cytotoxic drugs (cRaf-MEK1; KB-3-1 cells): not

SMILES: CN[C@@H]1C[C@H]2O[C@@](C)([C@@H]1OC)n1c3ccccc3c3c4c(c5c6ccccc6n2c5c31)C(=O)NC4 [staurosporine, 6-methoxy-5-methyl-7-methylamino-6,7,8,9,15,16-hexahydro-5H,14H-5,9-epoxy-4b,9a,15-triazadibenzo[b,h]cyclonona[1,2,3,4-jkl]cyclopenta[e]-as-indacen-14-one]
MAST1 activity in in vitro MAST1 kinase assay (MAST1): inhibited MAST1 activity in vitro

SMILES: CC(=O)Nc1cccc(-n2c(=O)n(C3CC3)c(=O)c3c(Nc4ccc(I)cc4F)n(C)c(=O)c(C)c32)c1 [trametinib, N-[3-[3-cyclopropyl-5-[(2-fluoro-4-iodophenyl)amino]-3,4,6,7-tetrahydro-6,8-dimethyl-2,4,7-trioxopyrido[4,3-d]pyrimidin-1(2H)-yl]phenyl]acetamide]
PDX tumor growth and proliferation (Lung PDX (Pt-9 tumor)): attenuated PDX tumor growth and proliferation; also recorded: sensitizes cancer cells to cisplatin
